For data set [1], the system named is Ras. The data set can be described thus: mobility-shift assay of Ras in labeled COS-1 cells (SDS-PAGE/Western blot). The format is cell-based. The note with it: 24 h; for effect on lovastatin-induced mobility shift of Ras: COS-1 cells treated with lovastatin. The protocol: FIG. 3. Detection of F-azide modified Ras and HDJ-2 by mobility-shift assay. Mobility-shift assay of Ras (A) and HDJ-2 (B). COS-1 cells were labeled with the indicated compounds for 24 h, the cell lysate were resolved in SDS-PAGE and probed using anti-Ras and anti-HDJ-2 antibodies, respectively. The letters, “u” and “p”, indicate the unmodified and isoprenylated forms of the protein, respectively.
To determine if the cell will process exogenous azido-farnesyl substrates, metabolic labeling of cells was carried out with synthetic substrates, either FPP azide or F-azide-OH, and mobility-shift assays were performed for Ras and HDJ-2 in order to determine if they are posttranslationally modified. Unprocessed Ras and HDJ-2 move more slowly than their farnesylated isoforms, therefore allowing separation in SDS-PAGE and subsequent detection by Western blotting analysis (James, 1994; Adjei, 2000).
COS-1 cells were grown in Dulbecco's modified Eagle's medium supplemented with 10% fetal bovine serum, 1% penicillin/streptomycin. When cells reached to 70% confluence, lovastatin was added and incubated for suitable amount of time prior to adding FPP azide.
Cells were harvested and lysed in 1 ml of lysis buffer (50 mM HEPES pH 7.6, 250 mM sodium chloride, 1.5 mM magnesium chloride, 1 mM EDTA, 10% (v/v) glycerol, 1% Triton X-100, and protease inhibitor cocktail (Roche Molecular Biochemicals, Indianapolis, Ind.)). The protein lystes were resolved in a 15% SDS-polyacrylamide gel, and transferred to PVDF membrane. The membrane was washed with TBST buffer (0.1% Tween 20, 150 mM NaCl, 25 mM TrisCl, pH 7.5), blocked for 2 h with a solution containing 5% (w/v) dried nonfat milk in TTBS, and immunoblotted for 2 h with an antibody in a blocking buffer (5% BSA in TTBS). After washing 4 times with TBST with changes every 15 min., the membrane was incubated with HRP-conjugated secondary antibody in TBST (1:5000 dilution) with 5% non-fat milk. The membrane was washed again for 4 times in TBST and visualized by enhanced chemiluminescence.
For orientation: Immunoblotting shows a protein as a band on a membrane.

Data set [2] relates to Ras. The data set can be described thus: Ras localisation, cytosol versus membrane association. The format is cell-based. The note with it: for membrane association of Ras: cells treated with lovastatin plus azido-farnesyl substrate. The text has this:
Farnesylated Ras protein is plasma-membrane associated while the unprocessed isoform is mainly located in cytosol.

A further data set relates to COS cells. The data set can be described thus: global detection of F-azide modified proteins by Western blotting after conjugation to biotinylated phosphine capture reagent. It is filed as cell-based. The note with it: COS cells dosed with lovastatin and substrate; signals competed away by 0.1 mM D-biotin. The protocol:
FIG. 4. Global detection of F-azide modified proteins by Western blotting analysis. COS cells were labeled with DMSO, or FPP N3 with or without lovastatin, as indicated, for 24 h. The protein lysates from the cells were precipitated by acetone/TCA method, redissolved in a buffer containing 2% SDS and PBS. The resulting solution was conjugated to biotinylated phosphine capture reagents or not, precipitated by acetone/TCA method again. The protein pellet was redissolved in 1×SDS sample buffer, resolved in SDS-PAGE, and detected by Western blotting analysis using streptavidin-conjugated HRP with or without biotin.
To further test whether proteins could be modified by F-azide and subsequently detected, Western blotting analysis was carried out in order to detect F-azide modified proteins. The protein whole-cell lysate from the cells dosed with lovastatin and FPP azide was subjected to conjugation reaction using biotinylated phosphine capture reagent. The resulting lysate was resolved using a SDS-PAGE gel and the biotinylated proteins detected by Western blotting analysis using HRP-conjugated streptavidin.
COS-1 cells were grown in Dulbecco's modified Eagle's medium supplemented with 10% fetal bovine serum, 1% penicillin/streptomycin. When cells reached to 70% confluence, lovastatin was added and incubated for suitable amount of time prior to adding FPP azide. […]

For another data set, the system named is cells. In words: growth rate of cells cultured in DMEM media with the labeling compounds. It is filed as cell-based. The note with it: DMEM media containing lovastatin, FPP-azide/F-azide-OH, and GG-OH together. An excerpt:
Several lines of evidence indicate that F-azide modified proteins maintain the major characteristics of naturally farnesylated proteins. First, F-azide-modified Ras retains GTPase activity. Second, F-azide modification induced Ras' membrane association.

In a further data set the target is FTase (Homo sapiens, UniProt P49354+P49356). The data set can be described thus: in vitro farnesylation reaction of RC peptide (KKFFCAIS) with FTase, MALDI-TOF readout. It is filed as biochemical. As to the method:
FIG. 2. FPP azide is a substrate for in vitro farnesylation reaction. MALDI-TOF mass spectra of RC peptide before (A) and after (B) in vitro farnesylation reaction. One hundred pmol RC-peptide (KKFFCAIS) were mixed with 3000 pmol FPP azide and 35 pmol FTase in 7 μl reaction buffer and incubated at 30° C. for 10 h. The F-azide modified RC-peptide was confirmed by mass spectrometry (m/z, 1191).
To determine whether farnsyltransferase can use FPP azide as a substrate for protein farnesylation, an in-vitro enzymatic reaction was carried out between a CAAX-box containing peptide (RC peptide, KKFFCAIS) and FPP azide.
The molecular masses of the peptide prior to and after enzymatic reaction were determined by MALDI-TOF mass spectrometry. F-azide-modified peptide was detected after enzymatic reaction (m/z, 1191 Da, a mass increase of 246 Da over RC peptide) (FIG. 2).
In a parallel study, an enzymatic reaction was carried out with FPP, the natural substrate for protein farnesylation.

For data set [3], the system named is Ras. The data set can be described thus: immunoprecipitation of Ras, conjugation to biotinylated phosphine capture reagent and Western blotting. The note with it: cells dosed with FPP-azide versus control cells. The format is cell-based. The text has this:
The resulting immunocomplexes were resolubilized in 1×SDS sample buffer and then subjected to conjugation reaction using biotinylated phosphine capture reagents, respectively. The free biotinylated capture reagent was removed by a desalting column, resolved in SDS-PAGE, and then detected by Western blotting analysis […]. Protein signals corresponding molecular weights of HDJ-2 and Ras were detected from the cells dosed with FPP-azide but not in the control cells.

Sequence of FTase (P49356 whole entry, one chain of several): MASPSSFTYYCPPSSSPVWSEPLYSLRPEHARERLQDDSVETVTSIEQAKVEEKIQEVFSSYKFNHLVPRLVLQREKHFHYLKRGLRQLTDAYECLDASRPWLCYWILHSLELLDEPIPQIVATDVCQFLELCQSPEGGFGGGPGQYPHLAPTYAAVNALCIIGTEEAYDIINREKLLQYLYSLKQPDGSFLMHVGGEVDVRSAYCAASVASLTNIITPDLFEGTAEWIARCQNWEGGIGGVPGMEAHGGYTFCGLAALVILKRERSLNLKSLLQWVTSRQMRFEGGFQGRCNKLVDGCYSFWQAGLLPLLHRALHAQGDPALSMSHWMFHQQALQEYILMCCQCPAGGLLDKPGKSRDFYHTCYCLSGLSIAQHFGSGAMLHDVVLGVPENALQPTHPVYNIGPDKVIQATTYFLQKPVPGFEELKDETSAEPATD

On to `CC[C@H](C)C(=O)O[C@H]1C[C@@H](C)C=C2C=C[C@H](C)[C@H](CC[C@@H]3C[C@@H](O)CC(=O)O3)[C@H]21` [lovastatin, reference compound], for which the “mobility shift of Ras” value in the data set with Ras [1] (COS-1 cells, compound alone) is recorded as “induce mobility shift”. Besides, the “localisation of Ras” value in the data set on Ras [2] (cells treated with lovastatin) is “mainly detected in cytosol”.
Regarding `CC(=CCO)CCC=C(C)CCC=C(C)CN=[N+]=[N-]` [F-azide-OH, azido-farnesyl alcohol], the “effect on lovastatin-induced mobility shift of Ras” value in the data set on Ras [1] was “reversed the mobility shift”. Moreover, the “membrane association of Ras” value with Ras [2] is “restore membrane association”. For the same compound, the “F-azide modified proteins detected by Western blotting with HRP-conjugated streptavidin” value in the data set on COS cells was “detection of multiple proteins”. Besides, in the data set with cells, the “growth rate of cells compared with cells cultured without the compounds” value is “comparable growth rate”.
As to azido farnesyl diphosphate [FPP azide], at FTase (RC peptide, FTase), the “substrate for the farnesyltransfer reaction in vitro” value is “good substrate”. Further, at FTase (in vitro enzymatic reaction, parallel study with natural substrate FPP), the “reaction rate with RC peptide compared with FPP” value was “somewhat faster”. Also, in the data set with Ras [1], the “effect on lovastatin-induced mobility shift of Ras” value is recorded as “reversed the mobility shift”. The “membrane association of Ras” value with Ras [2] was “restore membrane association”. In addition, the “F-azide modified proteins detected by Western blotting with HRP-conjugated streptavidin” value with COS cells is listed as “detection of multiple proteins”. Also, the “protein signal at the molecular weight of Ras” value with Ras [3] is on record as “detected”. Further, the “growth rate of cells compared with cells cultured without the compounds” value in the data set on cells is reported as “comparable growth rate”.
For `CC(C)=CCC/C(C)=C/CC/C(C)=C/CC/C(C)=C/CO` [GG-OH, geranylgeranyl alcohol, reference compound], in the data set with Ras [1], the “effect on lovastatin-induced mobility shift of Ras” value is reported as “not affect the mobility shifts”.

The values above are taken from patent US7070941B2, “Methods and compositions for tagging via azido substrates” (Board of Regents, The University of Texas System, priority 2003, dated 2006).
